Reference: patent publication US8063220B2, “Sulfonyl-quinoline derivatives” (Richter Gedeon Nyrt., priority 2007, dated 2011)

Assays:
[1] = target: T1, rat mGluR1 (Rattus norvegicus, UniProt P23385); assay: MGluR1 receptor binding test ([3H]R214127 displacement, rat cerebellar membrane preparation); conditions: rat mGluR1, [3H]R214127 3 nM; read-out: mGlu1 Ki
T1 construct: rat cerebellar membrane preparation was used; from tissue; host or cells: rat cerebellum (membrane preparation)
Experimental: MGluR1 receptor binding tests were performed according to modified method of Lavreysen et al. (Mol. Pharm., 2003, 63, 1082). Based on the high homology between the human and rat mGluR1 receptors, rat cerebellar membrane preparation was used to determine the binding characteristics of reference compounds and novel compounds to the rat mGluR1. [3H]R214127 (3 nM) was used as radioligand and the nonspecific binding was determined in the presence of 1 μM of R214127.
IC-50 values were determined from displacement curves by nonlinear regression analysis and were converted to Ki values using the equation method of Cheng and Prusoff (Biochem. Pharmacol., 1973, 22, 3099).

[2] = target: T2, rat mGluR5 (Rattus norvegicus, UniProt P31424); assay: MGluR5 receptor binding test ([3H]-M-MPEP displacement, rat cerebro-cortical membrane preparation); conditions: rat mGluR5, [3H]-M-MPEP 2 nM; read-out: mGlu5 Ki
T2 construct: Rat cerebro-cortical membrane preparation was used; from tissue; host or cells: rat cerebral cortex (membrane preparation)
T2 sequence (P31424 21-1203): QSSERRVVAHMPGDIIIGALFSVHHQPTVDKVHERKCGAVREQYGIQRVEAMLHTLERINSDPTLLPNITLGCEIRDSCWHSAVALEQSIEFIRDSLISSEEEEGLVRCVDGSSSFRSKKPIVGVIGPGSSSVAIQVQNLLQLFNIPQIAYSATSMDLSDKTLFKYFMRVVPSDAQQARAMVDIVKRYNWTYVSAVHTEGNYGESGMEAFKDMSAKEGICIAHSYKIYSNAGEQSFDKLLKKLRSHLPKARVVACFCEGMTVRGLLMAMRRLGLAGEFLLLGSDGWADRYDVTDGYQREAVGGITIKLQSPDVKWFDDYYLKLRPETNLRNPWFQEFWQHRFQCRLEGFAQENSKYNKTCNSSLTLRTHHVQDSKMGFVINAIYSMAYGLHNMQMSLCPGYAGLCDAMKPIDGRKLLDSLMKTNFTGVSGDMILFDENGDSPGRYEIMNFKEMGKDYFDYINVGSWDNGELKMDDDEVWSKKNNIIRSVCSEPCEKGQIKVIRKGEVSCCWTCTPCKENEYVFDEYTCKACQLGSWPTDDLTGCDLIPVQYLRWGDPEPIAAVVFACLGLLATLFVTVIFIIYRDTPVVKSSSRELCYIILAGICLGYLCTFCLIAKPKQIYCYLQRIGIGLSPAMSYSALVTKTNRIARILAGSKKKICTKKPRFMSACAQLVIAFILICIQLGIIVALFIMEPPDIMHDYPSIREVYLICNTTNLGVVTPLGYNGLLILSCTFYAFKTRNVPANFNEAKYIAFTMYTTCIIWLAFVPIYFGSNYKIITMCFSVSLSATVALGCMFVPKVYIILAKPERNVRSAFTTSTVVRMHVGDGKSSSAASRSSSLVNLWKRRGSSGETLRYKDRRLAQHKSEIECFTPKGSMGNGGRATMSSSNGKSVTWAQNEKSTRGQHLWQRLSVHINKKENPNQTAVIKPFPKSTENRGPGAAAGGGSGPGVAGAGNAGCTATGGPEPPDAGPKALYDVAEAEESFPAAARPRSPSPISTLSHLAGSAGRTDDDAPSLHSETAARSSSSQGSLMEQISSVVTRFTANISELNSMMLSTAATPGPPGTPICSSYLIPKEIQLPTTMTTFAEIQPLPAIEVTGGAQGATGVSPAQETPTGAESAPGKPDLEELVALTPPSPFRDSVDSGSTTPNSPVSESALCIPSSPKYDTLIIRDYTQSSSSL
Experimental: Rat cerebro-cortical membrane preparation was used to determine the binding characteristics of reference compounds and novel compounds to the rat mGluR5. The A18 cell line expressing hmGluR5a (purchased from Euroscreen) was used to determine binding characteristics of the chemical compounds to the human mGluR5a receptor. [3H]-M-MPEP (2 nM) was used as radioligand. The nonspecific binding was determined in the presence of 10 μM M-MPEP.

T1 sequence (P23385 19-1199): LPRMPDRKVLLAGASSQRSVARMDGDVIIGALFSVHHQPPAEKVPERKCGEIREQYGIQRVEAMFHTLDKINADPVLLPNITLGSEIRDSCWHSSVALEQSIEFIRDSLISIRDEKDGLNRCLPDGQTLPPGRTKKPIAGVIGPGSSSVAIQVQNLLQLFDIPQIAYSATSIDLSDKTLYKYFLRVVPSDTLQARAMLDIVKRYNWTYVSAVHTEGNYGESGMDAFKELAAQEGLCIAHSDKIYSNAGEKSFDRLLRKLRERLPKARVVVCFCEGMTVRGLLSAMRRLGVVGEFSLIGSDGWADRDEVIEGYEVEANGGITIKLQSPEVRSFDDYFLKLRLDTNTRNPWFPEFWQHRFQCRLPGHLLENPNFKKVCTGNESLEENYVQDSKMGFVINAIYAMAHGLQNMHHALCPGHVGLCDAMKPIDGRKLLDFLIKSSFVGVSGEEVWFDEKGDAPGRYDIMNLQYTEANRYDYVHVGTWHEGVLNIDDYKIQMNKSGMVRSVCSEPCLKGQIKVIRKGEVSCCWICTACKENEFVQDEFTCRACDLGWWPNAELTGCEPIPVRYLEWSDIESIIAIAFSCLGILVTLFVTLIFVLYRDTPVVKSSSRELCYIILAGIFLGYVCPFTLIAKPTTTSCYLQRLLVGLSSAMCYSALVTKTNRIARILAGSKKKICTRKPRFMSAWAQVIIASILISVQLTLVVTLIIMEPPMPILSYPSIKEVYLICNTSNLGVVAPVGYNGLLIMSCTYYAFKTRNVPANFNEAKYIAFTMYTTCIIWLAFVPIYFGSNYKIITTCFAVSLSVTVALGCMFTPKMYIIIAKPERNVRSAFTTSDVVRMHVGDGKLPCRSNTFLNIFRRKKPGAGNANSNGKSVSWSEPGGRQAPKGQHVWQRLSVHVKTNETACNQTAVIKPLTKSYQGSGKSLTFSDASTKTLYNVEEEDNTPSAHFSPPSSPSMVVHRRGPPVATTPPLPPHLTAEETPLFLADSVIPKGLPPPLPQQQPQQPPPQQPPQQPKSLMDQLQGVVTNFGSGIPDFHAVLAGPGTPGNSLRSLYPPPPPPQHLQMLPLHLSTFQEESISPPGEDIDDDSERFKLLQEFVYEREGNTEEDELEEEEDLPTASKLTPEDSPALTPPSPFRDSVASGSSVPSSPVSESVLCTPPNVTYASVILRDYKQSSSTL

SMILES | Ki [1] [nM] | Ki [2] [nM]
O=S(=O)(c1cc(F)cc(F)c1)c1cnc2ccc(F)cc2c1-c1ccc(Cl)cc1 [Compound 132] | > 500 | 200 to 500
COc1ccc(-c2c(S(=O)(=O)c3cc(F)cc(F)c3)cnc3ccc(F)cc23)cc1 [Compound 133] | > 500 | 200 to 500
COc1cccc(-c2c(S(=O)(=O)c3cc(F)cc(F)c3)cnc3ccc(F)cc23)c1 [Compound 134] | > 500 | 200 to 500
COc1ccc(-c2c(S(=O)(=O)c3cccc(C#N)c3)cnc3ccc(F)cc23)cc1 [Compound 137] | > 500 | < 200
Cc1ccc(S(=O)(=O)c2cnc3ccc(F)cc3c2-c2cccc(Cl)c2)cc1Cl [Compound 138] | > 500 | < 200
Cc1ccc(S(=O)(=O)c2cnc3ccc(F)cc3c2-c2ccc(Cl)cc2)cc1Cl [Compound 139] | > 500 | < 200
Cc1ccc(S(=O)(=O)c2cnc3ccc(F)cc3c2-c2cccc(F)c2)cc1Cl [Compound 140] | > 500 | < 200
COc1cccc(-c2c(S(=O)(=O)c3ccc(C)c(Cl)c3)cnc3ccc(F)cc23)c1 [Compound 141] | > 500 | < 200
Cc1ccc(S(=O)(=O)c2cnc3ccc(F)cc3c2-c2ccc(F)cc2)cc1Cl [Compound 142] | > 500 | < 200
COc1ccc(S(=O)(=O)c2cnc3ccc(F)cc3c2-c2ccc(F)cc2)cc1 [Compound 143] | > 500 | 200 to 500
COc1cccc(S(=O)(=O)c2cnc3ccc(F)cc3c2-c2ccc(Cl)cc2)c1 [Compound 144] | > 500 | < 200
COc1ccc(-c2c(S(=O)(=O)c3cccc(OC)c3)cnc3ccc(F)cc23)cc1 [Compound 145] | > 500 | < 200
Cc1ccc(S(=O)(=O)c2cnc3ccc(F)cc3c2-c2cccc(F)c2)cc1C [Compound 146] | > 500 | < 200
COc1ccc(-c2c(S(=O)(=O)c3ccc(C)c(C)c3)cnc3ccc(F)cc23)cc1 [Compound 147] | > 500 | < 200
Cc1ccc(S(=O)(=O)c2cnc3ccc(F)cc3c2-c2ccc(F)cc2)cc1C [Compound 148] | > 500 | < 200
COc1cccc(-c2c(S(=O)(=O)c3ccc(F)c(F)c3)cnc3ccc(F)cc23)c1 [Compound 151] | > 500 | 200 to 500
COc1cccc(-c2c(S(=O)(=O)c3ccc(F)c(Cl)c3)cnc3ccc(F)cc23)c1 [Compound 154] | > 500 | < 200
O=S(=O)(c1cc(Cl)cc(Cl)c1)c1cnc2ccc(F)cc2c1-c1cccc(Cl)c1 [Compound 160] | > 500 | < 200
O=S(=O)(c1cc(Cl)cc(Cl)c1)c1cnc2ccc(F)cc2c1-c1ccc(Cl)cc1 [Compound 161] | > 500 | < 200

SMILES | Ki [1] [nM] | Ki [2] [nM]
COc1ccc(S(=O)(=O)c2cnc3cc(F)ccc3c2-c2cccc(Cl)c2)cc1OC [Compound 162] | > 500 | > 500
COc1ccc(-c2c(S(=O)(=O)c3ccc(OC)cc3)cnc3ccc(F)cc23)cc1 [Compound 163] | > 500 | < 200
COc1ccc(S(=O)(=O)c2cnc3ccc(F)cc3c2-c2ccc(Cl)cc2)cc1OC [Compound 164] | > 500 | > 500
COc1ccc(S(=O)(=O)c2cnc3ccc(F)cc3c2-c2ccc(F)cc2)cc1Cl [Compound 165] | > 500 | > 500
O=S(=O)(c1cc(Cl)cc(Cl)c1)c1cnc2cc(Cl)ccc2c1-c1cccc(F)c1 [Compound 166] | > 500 | < 200
O=S(=O)(c1ccc(F)cc1)c1cnc2cc(Cl)ccc2c1-c1cccc(F)c1 [Compound 167] | > 500 | < 200
O=S(=O)(c1cccc(F)c1)c1cnc2cc(Cl)ccc2c1-c1cccc(F)c1 [Compound 168] | > 500 | < 200
O=S(=O)(c1cc(F)cc(F)c1)c1cnc2cc(Cl)ccc2c1-c1cccc(F)c1 [Compound 169] | > 500 | < 200
O=S(=O)(c1ccc(F)c(F)c1)c1cnc2cc(Cl)ccc2c1-c1cccc(F)c1 [Compound 170, 7-chloro-3-(3,4-difluoro-benzenesulfonyl)-4-(3-fluoro-phenyl)-quinoline] | > 500 | < 200
O=S(=O)(c1ccc(F)c(Cl)c1)c1cnc2cc(Cl)ccc2c1-c1cccc(F)c1 [Compound 171] | > 500 | < 200
O=S(=O)(c1ccc(F)cc1)c1cnc2cc(Cl)ccc2c1-c1ccc(Cl)cc1 [Compound 172] | > 500 | < 200
O=S(=O)(c1cccc(F)c1)c1cnc2cc(Cl)ccc2c1-c1ccc(Cl)cc1 [Compound 173] | > 500 | < 200
O=S(=O)(c1cc(F)cc(F)c1)c1cnc2cc(Cl)ccc2c1-c1ccc(Cl)cc1 [Compound 174] | > 500 | < 200
O=S(=O)(c1ccc(F)c(F)c1)c1cnc2cc(Cl)ccc2c1-c1ccc(Cl)cc1 [Compound 175] | > 500 | < 200
O=S(=O)(c1ccc(F)c(Cl)c1)c1cnc2cc(Cl)ccc2c1-c1ccc(Cl)cc1 [Compound 176] | > 500 | < 200
N#Cc1cccc(S(=O)(=O)c2cnc3cc(Cl)ccc3c2-c2ccc(Cl)cc2)c1 [Compound 177] | > 500 | < 200
O=S(=O)(c1cc(Cl)cc(Cl)c1)c1cnc2cc(Cl)ccc2c1-c1ccc(F)cc1 [Compound 178] | > 500 | < 200
O=S(=O)(c1ccc(F)cc1)c1cnc2cc(Cl)ccc2c1-c1ccc(F)cc1 [Compound 179] | > 500 | < 200
O=S(=O)(c1cccc(F)c1)c1cnc2cc(Cl)ccc2c1-c1ccc(F)cc1 [Compound 180] | > 500 | < 200

More lines, now with the values ahead:

Ki [1] [nM] | Ki [2] [nM] | SMILES
200 to 500 | < 200 | O=S(=O)(c1ccc(F)c(F)c1)c1cnc2c(F)cccc2c1-c1ccc(Cl)cc1 [Compound 120]
< 200 | < 200 | O=S(=O)(c1ccc(F)c(F)c1)c1cnc2c(F)cccc2c1-c1cccc(F)c1 [Compound 121]
> 500 | < 200 | COc1ccc(-c2c(S(=O)(=O)c3ccc(F)c(F)c3)cnc3c(F)cccc23)cc1 [Compound 122]
< 200 | < 200 | O=S(=O)(c1ccc(F)c(F)c1)c1cnc2c(F)cccc2c1-c1ccc(F)cc1 [Compound 123]
200 to 500 | < 200 | O=S(=O)(c1cc(Cl)cc(Cl)c1)c1cnc2ccc(F)cc2c1-c1cccc(F)c1 [Compound 124]
> 500 | < 200 | COc1ccc(-c2c(S(=O)(=O)c3cc(Cl)cc(Cl)c3)cnc3ccc(F)cc23)cc1 [Compound 125]
> 500 | < 200 | COc1cccc(-c2c(S(=O)(=O)c3cc(Cl)cc(Cl)c3)cnc3ccc(F)cc23)c1 [Compound 126]
> 500 | < 200 | Cc1ccc(S(=O)(=O)c2cnc3ccc(F)cc3c2-c2cccc(Cl)c2)cc1F [Compound 127]
> 500 | < 200 | Cc1ccc(S(=O)(=O)c2cnc3ccc(F)cc3c2-c2cccc(F)c2)cc1F [Compound 128]
> 500 | < 200 | COc1ccc(-c2c(S(=O)(=O)c3ccc(C)c(F)c3)cnc3ccc(F)cc23)cc1 [Compound 129]
> 500 | < 200 | COc1cccc(-c2c(S(=O)(=O)c3ccc(C)c(F)c3)cnc3ccc(F)cc23)c1 [Compound 130]
> 500 | < 200 | Cc1ccc(S(=O)(=O)c2cnc3ccc(F)cc3c2-c2ccc(F)cc2)cc1F [Compound 131]
200 to 500 | < 200 | N#Cc1cccc(S(=O)(=O)c2cnc3ccc(F)cc3c2-c2cccc(Cl)c2)c1 [Compound 135]
200 to 500 | < 200 | N#Cc1cccc(S(=O)(=O)c2cnc3ccc(F)cc3c2-c2ccc(Cl)cc2)c1 [Compound 136]
200 to 500 | 200 to 500 | O=S(=O)(c1ccc(F)c(F)c1)c1cnc2ccc(F)cc2c1-c1cccc(Cl)c1 [Compound 149]
200 to 500 | < 200 | O=S(=O)(c1ccc(F)c(F)c1)c1cnc2ccc(F)cc2c1-c1cccc(F)c1 [Compound 150]
200 to 500 | < 200 | O=S(=O)(c1ccc(F)c(F)c1)c1cnc2ccc(F)cc2c1-c1ccc(F)cc1 [Compound 152]
200 to 500 | < 200 | O=S(=O)(c1ccc(F)c(Cl)c1)c1cnc2ccc(F)cc2c1-c1ccc(Cl)cc1 [Compound 153]
200 to 500 | < 200 | O=S(=O)(c1ccc(F)c(Cl)c1)c1cnc2ccc(F)cc2c1-c1ccc(F)cc1 [Compound 155]
200 to 500 | < 200 | O=S(=O)(c1cc(Cl)cc(Cl)c1)c1cnc2cc(F)ccc2c1-c1cccc(Cl)c1 [Compound 156]
200 to 500 | < 200 | O=S(=O)(c1cc(Cl)cc(Cl)c1)c1cnc2cc(F)ccc2c1-c1ccc(Cl)cc1 [Compound 157]
200 to 500 | < 200 | O=S(=O)(c1cc(Cl)cc(Cl)c1)c1cnc2c(F)cccc2c1-c1cccc(Cl)c1 [Compound 158]
200 to 500 | < 200 | O=S(=O)(c1cc(Cl)cc(Cl)c1)c1cnc2c(F)cccc2c1-c1ccc(Cl)cc1 [Compound 159]
